According to publication PMC11432405, “Development of Novel Alaninamide Derivatives with Anticonvulsant Activity and Favorable Safety Profiles in Animal Models” (International Journal of Molecular Sciences, 2024):

Legend:
HepG2 cells = assay: hepatocytotoxicity MTT viability assay; format: cell-based, human; conditions: 1–50 µM, 24 h
Experimental: (§1) To evaluate selected compounds’ hepatocytotoxicity and neurocytotoxicity, a human hepatocellular carcinoma cell line, HepG2 (ATCC® HB-8065™), and a human neuroblastoma cell line, SH-SY5Y (ATCC®, CRL-2266™), were used. Both cell lines were cultured in standard culture conditions (5% CO2, 37 °C, 95% humidity) using Dulbecco′s Modified Eagle′s—Medium (DMEM; Gibco, Thermo Scientific, Waltham, MA, USA) supplemented with 10% (vol/vol) fetal bovine serum (FBS; Gibco, Thermo Scientific, Waltham, MA, USA) and an antibiotic mixture (Penicillin, Streptomycin, Amphotericin B; Gibco, Thermo Scientific, Waltham, MA, USA). Cells were cultured with compounds 5, […], or 39 (1–50 µM) for 24 h and then an MTT (3-(4,5-dimethylthiazol-2-yl)-2,5diphenyltetrazolium bromide, Sigma-Aldrich, St. Louis, MO, USA) viability assay was performed. The formazan crystals were dissolved in DMSO (Sigma-Aldrich, St. Louis, MO, USA), and the absorbance at 570 nm was measured using a microplate reader (SpectraMax® iD3, Molecular Devices, San Jose, CA, USA). The experiment was performed three times in duplicate. Each bar represents the mean (±SEM) percentage of viable cells in comparison to the control (defined as 100% and represented by untreated cells).
Figure 2 The viability of HepG2 cells incubated in the presence of 5, 17, and 39. HepG2 cells were exposed to growing concentrations (1–50 µM) of tested compounds for 24 h. Cell viability was measured using an MTT assay. Bars represent mean percent of cell viability normalized to non-treated cells (100%) ± SEM. The doxorubicin was tested as a positive control.

SH-SY5Y cells = assay: neurocytotoxicity MTT viability assay; format: cell-based, human; conditions: 1–50 µM, 24 h
Experimental: as §1
Figure 3 The viability of SH-SY5Y cells incubated in the presence of compounds 5, 17, and 39. […] Cell viability was measured using an MTT assay. […]

human recombinant MAO-B = target: T1, human recombinant MAO-B (Homo sapiens, UniProt P27338); assay: fluorometric monoamine oxidase B inhibition assay; format: biochemical; conditions: read-out: % inhibition MAO-B (1 µM), mean of two independent experiments
T1 construct: purchased Sigma Aldrich
T1 sequence (P27338 1-520): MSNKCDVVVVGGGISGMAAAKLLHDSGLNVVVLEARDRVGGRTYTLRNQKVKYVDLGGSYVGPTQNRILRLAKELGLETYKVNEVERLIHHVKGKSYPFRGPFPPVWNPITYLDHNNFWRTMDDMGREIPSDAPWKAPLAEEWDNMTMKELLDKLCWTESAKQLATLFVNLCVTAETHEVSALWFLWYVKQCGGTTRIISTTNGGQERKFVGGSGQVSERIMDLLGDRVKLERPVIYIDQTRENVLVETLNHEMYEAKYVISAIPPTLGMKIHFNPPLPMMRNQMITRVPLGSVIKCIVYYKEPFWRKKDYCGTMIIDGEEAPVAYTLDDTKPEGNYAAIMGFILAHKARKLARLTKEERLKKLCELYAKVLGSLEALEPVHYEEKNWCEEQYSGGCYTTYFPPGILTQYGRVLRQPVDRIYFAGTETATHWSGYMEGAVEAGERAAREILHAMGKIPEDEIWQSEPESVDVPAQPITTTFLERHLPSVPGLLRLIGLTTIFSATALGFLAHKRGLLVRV

GlyT1 = target: T2, GlyT1 (Rattus norvegicus, UniProt P28572); assay: radioligand binding GlyT1; conditions: rat cerebral cortex
T2 construct: Cerep Laboratories / Eurofins (contract assay)
T2 sequence (P28572 1-638): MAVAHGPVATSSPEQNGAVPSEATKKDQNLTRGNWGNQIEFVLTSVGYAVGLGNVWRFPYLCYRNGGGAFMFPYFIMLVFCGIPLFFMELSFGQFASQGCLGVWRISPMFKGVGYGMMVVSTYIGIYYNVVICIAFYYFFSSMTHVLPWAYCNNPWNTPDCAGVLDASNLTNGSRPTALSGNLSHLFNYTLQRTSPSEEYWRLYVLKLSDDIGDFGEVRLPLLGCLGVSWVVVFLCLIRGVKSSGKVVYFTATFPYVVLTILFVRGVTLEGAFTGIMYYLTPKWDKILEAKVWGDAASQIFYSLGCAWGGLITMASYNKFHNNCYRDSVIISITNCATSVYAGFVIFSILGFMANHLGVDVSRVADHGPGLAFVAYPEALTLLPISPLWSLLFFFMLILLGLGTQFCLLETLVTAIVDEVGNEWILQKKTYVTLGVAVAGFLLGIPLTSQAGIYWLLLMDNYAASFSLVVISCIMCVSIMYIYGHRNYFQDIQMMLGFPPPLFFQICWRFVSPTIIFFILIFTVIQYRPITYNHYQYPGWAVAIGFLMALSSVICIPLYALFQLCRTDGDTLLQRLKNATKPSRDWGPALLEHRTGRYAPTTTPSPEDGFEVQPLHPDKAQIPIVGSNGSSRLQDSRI
Experimental: (§2) Binding/functional studies were performed commercially in Cerep Laboratories (Poitiers, France) using testing procedures described elsewhere. The general information is listed in Table S3 in the Supporting Information.
(§3) Table S3. The general information of radioligand binding/functional assays. […]
GLYT1 (glycine transporter binding) (antagonist radioligand) […]
(§4) Assays were performed commercially in Eurofins Cerep SA (Celle l’Evescault, France) and Eurofins
(§5) Panlabs Discovery Services Taiwan, Ltd. (New Taipei City, Taiwan), using procedures describe

Cav2.2 N-type = target: T3, Cav2.2 N-type (Rattus norvegicus, UniProt P54290); assay: radioligand binding Cav2.2 N-type; conditions: rat cerebral cortex, antagonist radioligand
T3 construct: Rat cerebral cortex; tissue Cerep Laboratories / Eurofins (contract assay); host or cells: rat cerebral cortex
Experimental: as §2, §3
N-type Ca2+ [3H] Gabapentin binding (antagonist radioligand) […]
as §4, §5

hERG potassium channel = target: T4, hERG potassium channel (Homo sapiens, UniProt Q12809); assay: radioligand binding potassium channel (hERG); conditions: HEK-293 cells expressing human recombinant hERG, human recombinant HEK-293 cell, read-out: % Inhibition of Control Specific Binding
T4 construct: Cerep Laboratories / Eurofins (contract assay)
Experimental: as §2, §3
(§6) Potassium channel (hERG) […]
as §4, §5

Potassium channel (hERG) = target: T5, Potassium channel (hERG) (Homo sapiens, UniProt Q12809); assay: radioligand binding potassium channel (hERG); conditions: 100 µM, human recombinant HEK-293 cell
T5 construct: Cerep Laboratories / Eurofins (contract assay)
Experimental: as §2, §3, §6, §4, §5

[1] = system: Cav1.2 (L-type) (diltiazem site); assay: radioligand binding Cav1.2 (L-type) diltiazem site; conditions: 100 µM, rat cerebral cortex
Experimental: as §2, §3
Ca2+channel (L, diltiazem site) (antagonist radioligand) […]
as §4, §5

[2] = read-out: % Inhibition of Control Specific Binding

T3 sequence (P54290 25-944 limits assumed): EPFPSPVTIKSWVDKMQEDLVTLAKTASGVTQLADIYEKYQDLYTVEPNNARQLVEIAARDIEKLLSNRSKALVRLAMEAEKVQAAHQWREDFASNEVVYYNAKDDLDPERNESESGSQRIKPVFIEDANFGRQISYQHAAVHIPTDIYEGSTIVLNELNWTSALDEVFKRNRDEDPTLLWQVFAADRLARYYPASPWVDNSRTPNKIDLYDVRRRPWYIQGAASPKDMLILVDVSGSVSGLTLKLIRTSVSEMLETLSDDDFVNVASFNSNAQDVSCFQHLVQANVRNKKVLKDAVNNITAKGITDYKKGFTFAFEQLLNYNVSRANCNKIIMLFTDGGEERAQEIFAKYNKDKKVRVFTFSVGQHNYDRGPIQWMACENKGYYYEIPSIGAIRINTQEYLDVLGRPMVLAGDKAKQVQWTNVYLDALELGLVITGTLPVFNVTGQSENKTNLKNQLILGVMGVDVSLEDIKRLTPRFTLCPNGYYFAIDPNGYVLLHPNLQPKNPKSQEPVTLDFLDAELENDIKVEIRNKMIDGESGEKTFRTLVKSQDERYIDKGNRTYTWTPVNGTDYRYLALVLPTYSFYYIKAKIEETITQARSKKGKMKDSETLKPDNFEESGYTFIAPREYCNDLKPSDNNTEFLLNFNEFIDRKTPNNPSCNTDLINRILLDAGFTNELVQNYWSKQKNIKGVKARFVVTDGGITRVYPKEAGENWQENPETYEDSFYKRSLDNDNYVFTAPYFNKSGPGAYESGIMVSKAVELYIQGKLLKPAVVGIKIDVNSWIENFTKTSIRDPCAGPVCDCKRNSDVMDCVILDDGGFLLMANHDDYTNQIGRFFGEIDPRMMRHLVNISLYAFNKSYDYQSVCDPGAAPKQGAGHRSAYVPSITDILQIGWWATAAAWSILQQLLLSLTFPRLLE
T3 sequence (P54290 945-1091 limits assumed): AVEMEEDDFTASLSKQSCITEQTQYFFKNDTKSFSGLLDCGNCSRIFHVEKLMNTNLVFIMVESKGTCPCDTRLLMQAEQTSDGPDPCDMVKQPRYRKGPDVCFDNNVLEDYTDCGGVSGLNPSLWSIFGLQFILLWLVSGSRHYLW
T4 sequence (Q12809 whole entry): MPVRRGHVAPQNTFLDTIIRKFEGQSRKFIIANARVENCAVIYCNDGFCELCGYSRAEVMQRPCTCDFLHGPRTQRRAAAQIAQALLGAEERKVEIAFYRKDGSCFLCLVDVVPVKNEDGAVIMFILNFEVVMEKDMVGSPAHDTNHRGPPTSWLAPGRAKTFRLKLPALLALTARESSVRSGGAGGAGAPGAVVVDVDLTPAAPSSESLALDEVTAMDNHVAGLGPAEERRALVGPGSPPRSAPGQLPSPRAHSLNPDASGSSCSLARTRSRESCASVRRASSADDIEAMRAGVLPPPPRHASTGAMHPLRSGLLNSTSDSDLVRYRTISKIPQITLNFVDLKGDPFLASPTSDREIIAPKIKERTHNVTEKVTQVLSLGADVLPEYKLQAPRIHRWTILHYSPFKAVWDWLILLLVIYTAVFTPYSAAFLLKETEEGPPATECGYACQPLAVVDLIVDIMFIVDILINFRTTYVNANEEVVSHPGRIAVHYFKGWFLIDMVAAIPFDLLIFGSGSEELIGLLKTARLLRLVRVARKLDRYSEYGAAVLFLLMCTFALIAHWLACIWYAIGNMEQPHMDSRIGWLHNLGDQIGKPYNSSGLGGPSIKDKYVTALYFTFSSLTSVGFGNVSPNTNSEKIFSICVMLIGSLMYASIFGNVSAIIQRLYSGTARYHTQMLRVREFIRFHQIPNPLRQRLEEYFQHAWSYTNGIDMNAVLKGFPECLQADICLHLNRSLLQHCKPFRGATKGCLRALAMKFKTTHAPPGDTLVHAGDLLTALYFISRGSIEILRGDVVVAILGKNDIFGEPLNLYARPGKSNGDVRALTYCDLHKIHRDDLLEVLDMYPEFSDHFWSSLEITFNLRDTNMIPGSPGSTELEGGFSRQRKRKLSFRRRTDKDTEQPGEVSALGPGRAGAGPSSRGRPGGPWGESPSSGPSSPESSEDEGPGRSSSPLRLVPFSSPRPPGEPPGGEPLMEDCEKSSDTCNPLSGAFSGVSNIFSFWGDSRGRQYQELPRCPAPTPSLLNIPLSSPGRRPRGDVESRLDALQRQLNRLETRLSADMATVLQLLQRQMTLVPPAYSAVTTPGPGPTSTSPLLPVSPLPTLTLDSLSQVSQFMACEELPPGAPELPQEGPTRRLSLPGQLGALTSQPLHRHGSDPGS
T5 sequence (Q12809 whole entry): as above

## CC(C(=O)NCc1ccc(OCc2ccccc2)cc1)N1C(=O)CCC1=O (stereo not shown) [Compound 5, N-(4-(benzyloxy)benzyl)-2-(2,5-dioxopyrrolidin-1-yl)propanamide]
HepG2 cells
  toxic effect on HepG2 cell viability (MTT): do not exhibit toxic effects
SH-SY5Y cells
  toxic effect on SH-SY5Y cell viability (MTT): do not exhibit toxic effects
Human recombinant MAO-B
  inhibition at 1 µM: 0%
GlyT1; 100 µM
  % Inhibition of Control Specific Binding: no significant interaction
GlyT1; [2]
  inhibition at 100 µM: 23%
Cav2.2 N-type; 100 µM
  % Inhibition of Control Specific Binding: no significant interaction
Cav2.2 N-type; [2]
  inhibition at 100 µM: 1.1%
hERG potassium channel
  inhibition at 100 µM: 4.5%
Potassium channel (hERG)
  % Inhibition of Control Specific Binding: did not bind
[1]
  % Inhibition of Control Specific Binding: 68.5 (100) %
